{"source": "patent US9894902B2", "about": "“Herbicidal compositions comprising 4-amino-3-chloro-6-(4-chloro-2-fluoro-3-methoxyphenyl)pyridine-2-carboxylic acid or a derivative thereof and picloram or a derivative thereof” (Dow AgroSciences LLC, priority 2013, dated 2018)", "test_in_all_cases": "Postemergent herbicidal activity, greenhouse, foliar-applied", "format_in_all_cases": "in vivo", "settings_in_all_cases": "foliar postemergence", "key": {"[1]": {"tested_on": "GLXMA Glycine max (volunteer soybean)", "method": "(§1) Evaluation of Postemergent Herbicidal Activity. Seeds or nutlets of the desired test plant species were planted in Sun Gro Metro-Mix® 360 planting mixture, which typically has a pH of 6.0 to 6.8 and an organic matter content of about 30 percent, in plastic pots with a surface area of 64 square centimeters (cm^2). […] The plants were grown for 7-21 days (d) in a greenhouse with an approximate 15 hour (h) photoperiod which was maintained at about 23-29° C. during the day and 22-28° C. during the night. Nutrients and water were added on a regular basis and supplemental lighting was provided with overhead metal halide 1000-Watt lamps as necessary. The plants were employed for testing when they reached the first or second true leaf stage.\n(§2) A weighed amount, determined by the highest rate to be tested, of each test compound was placed in a 25 milliliter (mL) glass vial and was dissolved in 4 mL of a 97:3 volume per volume (v/v) mixture of acetone and dimethyl sulfoxide (DMSO) to obtain concentrated stock solutions. […] The concentrated stock solutions obtained were diluted with 20 mL of an aqueous mixture containing acetone, water, isopropyl alcohol, DMSO, Atplus 411F crop oil concentrate, and Triton® X-155 surfactant in a 48.5:39:10:1.5:1.0:0.02 v/v ratio to obtain spray solutions containing the highest application rates. Additional application rates were obtained by serial dilution of 12 mL of the high rate solution into a solution containing 2 mL of a 97:3 v/v mixture of acetone and DMSO and 10 mL of an aqueous mixture containing acetone, water, isopropyl alcohol, DMSO, Atplus 411F crop oil concentrate, and Triton X-155 surfactant in a 48.5:39:10:1.5:1.0:0.02 v/v ratio to obtain 1/2×, 1/4×, 1/8×and 1/16× rates of the high rate. Compound requirements are based upon a 12 mL application volume at a rate of 187 liters per hectare (L/ha). Formulated compounds were applied to the plant material with an overhead Mandel track sprayer equipped with 8002E nozzles calibrated to deliver 187 L/ha over an application area of 0.503 square meters (m^2) at a spray height of 18 inches ([…]) above the average plant canopy height. Control plants were sprayed in the same manner with the solvent blank.\n(§3) Treatments consisted of the methyl ester of 4-amino-3-chloro-6-(4-chloro-2-fluoro-3-methoxyphenyl)pyridine-2-carboxylic acid (Cmpd 1) as technical grade material and picloram (Tordon® 22K) alone and in combination. The form of compound of formula (I) and picloram-potassium salt were applied on an acid equivalent basis.\n(§4) The treated plants and control plants were placed in a greenhouse as described above and watered by subirrigation to prevent wash-off of the test compounds. After 14 d, the condition of the test plants as compared with that of the untreated plants was determined visually and scored on a scale of 0 to 100 percent where 0 corresponds to no injury and 100 corresponds to complete kill.\n(§5) The values reported are % control visually rated. Colby's equation was used to determine the herbicidal effects expected from the mixtures (Colby, S.R. Calculation of the synergistic and antagonistic response of herbicide combinations. Weeds 1967, 15, 20-22.).\n(§6) More specifically, the following equation was used to calculate the expected activity of mixtures containing two active ingredients, A and B: Expected=A+B−(A×B/100) • A=observed efficacy of active ingredient A at the same concentration as used in the mixture; • B=observed efficacy of active ingredient B at the same concentration as used in the mixture."}, "[2]": {"tested_on": "EPHHL Euphorbia heterophylla L. (wild poinsettia)", "method": "as §1, §2, §3, §4, §5, §6"}, "[3]": {"tested_on": "AMARE Amaranthus retroflexus L. (redroot pigweed)", "method": "as §1, §2, §3, §4, §5, §6"}, "[4]": {"tested_on": "STEME Stellaria media (L.) Vill. (common chickweed)", "method": "as §1, §2, §3, §4, §5, §6"}, "[5]": {"tested_on": "SETFA Setaria faberi Herrm. (giant foxtail)", "method": "as §1, §2, §3, §4, §5, §6"}, "[6]": {"tested_on": "CYPES Cyperus esculentus L. (yellow nutsedge)", "method": "as §1, §2, §3, §4, §5, §6"}, "[7]": {"tested_on": "ABUTH Abutilon theophrasti Medik. (velvetleaf)", "method": "as §1, §2, §3, §4, §5, §6"}, "[8]": {"tested_on": "CIRAR Cirsium arvense (L.) Scop. (Canada thistle)", "method": "as §1, §2, §3, §4, §5, §6"}, "[9]": {"tested_on": "VIOTR Viola tricolor L. (wild violet)", "method": "as §1, §2, §3, §4, §5, §6"}, "[10]": {"tested_on": "BRSNW Brassica napus (winter oilseed rape)", "method": "as §1, §2, §3, §4, §5, §6"}}, "data": [{"compound": "COC(=O)c1nc(-c2ccc(Cl)c(OC)c2F)cc(N)c1Cl", "note": "[Cmpd I, methyl ester of 4-amino-3-chloro-6-(4-chloro-2-fluoro-3-methoxyphenyl)pyridine-2-carboxylic acid]", "values": [{"measurement": "Visual Growth reduction (%) 14 Days After Application GLXMA obs", "setting": "[1]; Cmpd I 2.5 g ae/ha alone", "value": 80, "unit": "%"}, {"measurement": "Visual Growth reduction (%) 14 Days After Application GLXMA obs", "setting": "[1]; Cmpd I 5 g ae/ha alone", "value": 87, "unit": "%"}, {"measurement": "Visual Growth reduction (%) 14 Days After Application GLXMA obs", "setting": "[1]; Cmpd I 10 g ae/ha alone", "value": 100, "unit": "%"}, {"measurement": "Visual Growth reduction (%) 14 Days After Application EPHHL obs", "setting": "[2]; Cmpd I 2.5 g ae/ha alone", "value": 85, "unit": "%"}, {"measurement": "Visual Growth reduction (%) 14 Days After Application EPHHL obs", "setting": "[2]; Cmpd I 5 g ae/ha alone", "value": 93, "unit": "%"}, {"measurement": "Visual Growth reduction (%) 14 Days After Application EPHHL obs", "setting": "[2]; Cmpd I 10 g ae/ha alone", "value": 100, "unit": "%"}, {"measurement": "Visual Growth reduction (%) 14 Days After Application AMARE obs", "setting": "[3]; Cmpd I 2.5 g ae/ha alone", "value": 50, "unit": "%"}, {"measurement": "Visual Growth reduction (%) 14 Days After Application AMARE obs", "setting": "[3]; Cmpd I 5 g ae/ha alone", "value": 58, "unit": "%"}, {"measurement": "Visual Growth reduction (%) 14 Days After Application AMARE obs", "setting": "[3]; Cmpd I 10 g ae/ha alone", "value": 77, "unit": "%"}, {"measurement": "Visual Growth reduction (%) 14 Days After Application STEME obs", "setting": "[4]; Cmpd I 2.5 g ae/ha alone", "value": 50, "unit": "%"}, {"measurement": "Visual Growth reduction (%) 14 Days After Application STEME obs", "setting": "[4]; Cmpd I 5 g ae/ha alone", "value": 57, "unit": "%"}, {"measurement": "Visual Growth reduction (%) 14 Days After Application STEME obs", "setting": "[4]; Cmpd I 10 g ae/ha alone", "value": 72, "unit": "%"}, {"measurement": "Visual Growth reduction (%) 14 Days After Application SETFA obs", "setting": "[5]; Cmpd I 2.5 g ae/ha alone", "value": 0, "unit": "%"}, {"measurement": "Visual Growth reduction (%) 14 Days After Application SETFA obs", "setting": "[5]; Cmpd I 5 g ae/ha alone", "value": 5, "unit": "%"}, {"measurement": "Visual Growth reduction (%) 14 Days After Application SETFA obs", "setting": "[5]; Cmpd I 10 g ae/ha alone", "value": 35, "unit": "%"}, {"measurement": "Visual Growth reduction (%) 14 Days After Application CYPES obs", "setting": "[6]; Cmpd I 2.5 g ae/ha alone", "value": 20, "unit": "%"}, {"measurement": "Visual Growth reduction (%) 14 Days After Application CYPES obs", "setting": "[6]; Cmpd I 5 g ae/ha alone", "value": 72, "unit": "%"}, {"measurement": "Visual Growth reduction (%) 14 Days After Application CYPES obs", "setting": "[6]; Cmpd I 10 g ae/ha alone", "value": 96, "unit": "%"}, {"measurement": "Visual Growth reduction (%) 14 Days After Application ABUTH obs", "setting": "[7]; Cmpd I 2.5 g ae/ha alone", "value": 87, "unit": "%"}, {"measurement": "Visual Growth reduction (%) 14 Days After Application ABUTH obs", "setting": "[7]; Cmpd I 5 g ae/ha alone", "value": 85, "unit": "%"}, {"measurement": "Visual Growth reduction (%) 14 Days After Application ABUTH obs", "setting": "[7]; Cmpd I 10 g ae/ha alone", "value": 90, "unit": "%"}, {"measurement": "Visual Growth reduction (%) 14 Days After Application CIRAR obs", "setting": "[8]; Cmpd I 2.5 g ae/ha alone", "value": 47, "unit": "%"}, {"measurement": "Visual Growth reduction (%) 14 Days After Application CIRAR obs", "setting": "[8]; Cmpd I 5 g ae/ha alone", "value": 53, "unit": "%"}, {"measurement": "Visual Growth reduction (%) 14 Days After Application CIRAR obs", "setting": "[8]; Cmpd I 10 g ae/ha alone", "value": 65, "unit": "%"}, {"measurement": "Visual Growth reduction (%) 14 Days After Application VIOTR obs", "setting": "[9]; Cmpd I 2.5 g ae/ha alone", "value": 30, "unit": "%"}, {"measurement": "Visual Growth reduction (%) 14 Days After Application VIOTR obs", "setting": "[9]; Cmpd I 5 g ae/ha alone", "value": 43, "unit": "%"}, {"measurement": "Visual Growth reduction (%) 14 Days After Application VIOTR obs", "setting": "[9]; Cmpd I 10 g ae/ha alone", "value": 62, "unit": "%"}, {"measurement": "Visual Growth reduction (%) 14 Days After Application BRSNW obs", "setting": "[10]; Cmpd I 2.5 g ae/ha alone", "value": 0, "unit": "%"}, {"measurement": "Visual Growth reduction (%) 14 Days After Application BRSNW obs", "setting": "[10]; Cmpd I 5 g ae/ha alone", "value": 0, "unit": "%"}, {"measurement": "Visual Growth reduction (%) 14 Days After Application BRSNW obs", "setting": "[10]; Cmpd I 10 g ae/ha alone", "value": 10, "unit": "%"}]}, {"compound": "Nc1c(Cl)c(Cl)nc(C(=O)O)c1Cl", "note": "[Picloram, 4-amino-3,5,6-trichloro-2-pyridinecarboxylic acid]", "values": [{"measurement": "Visual Growth reduction (%) 14 Days After Application GLXMA obs", "setting": "[1]; Picloram 12 g ae/ha alone", "value": 73, "unit": "%"}, {"measurement": "Visual Growth reduction (%) 14 Days After Application GLXMA obs", "setting": "[1]; Picloram 24 g ae/ha alone", "value": 82, "unit": "%"}, {"measurement": "Visual Growth reduction (%) 14 Days After Application EPHHL obs", "setting": "[2]; Picloram 12 g ae/ha alone", "value": 62, "unit": "%"}, {"measurement": "Visual Growth reduction (%) 14 Days After Application EPHHL obs", "setting": "[2]; Picloram 24 g ae/ha alone", "value": 65, "unit": "%"}, {"measurement": "Visual Growth reduction (%) 14 Days After Application AMARE obs", "setting": "[3]; Picloram 12 g ae/ha alone", "value": 63, "unit": "%"}, {"measurement": "Visual Growth reduction (%) 14 Days After Application AMARE obs", "setting": "[3]; Picloram 24 g ae/ha alone", "value": 63, "unit": "%"}, {"measurement": "Visual Growth reduction (%) 14 Days After Application STEME obs", "setting": "[4]; Picloram 12 g ae/ha alone", "value": 27, "unit": "%"}, {"measurement": "Visual Growth reduction (%) 14 Days After Application STEME obs", "setting": "[4]; Picloram 24 g ae/ha alone", "value": 17, "unit": "%"}, {"measurement": "Visual Growth reduction (%) 14 Days After Application SETFA obs", "setting": "[5]; Picloram 12 g ae/ha alone", "value": 0, "unit": "%"}, {"measurement": "Visual Growth reduction (%) 14 Days After Application SETFA obs", "setting": "[5]; Picloram 24 g ae/ha alone", "value": 0, "unit": "%"}, {"measurement": "Visual Growth reduction (%) 14 Days After Application CYPES obs", "setting": "[6]; Picloram 12 g ae/ha alone", "value": 0, "unit": "%"}, {"measurement": "Visual Growth reduction (%) 14 Days After Application CYPES obs", "setting": "[6]; Picloram 24 g ae/ha alone", "value": 0, "unit": "%"}, {"measurement": "Visual Growth reduction (%) 14 Days After Application ABUTH obs", "setting": "[7]; Picloram 12 g ae/ha alone", "value": 25, "unit": "%"}, {"measurement": "Visual Growth reduction (%) 14 Days After Application ABUTH obs", "setting": "[7]; Picloram 24 g ae/ha alone", "value": 15, "unit": "%"}, {"measurement": "Visual Growth reduction (%) 14 Days After Application CIRAR obs", "setting": "[8]; Picloram 12 g ae/ha alone", "value": 65, "unit": "%"}, {"measurement": "Visual Growth reduction (%) 14 Days After Application CIRAR obs", "setting": "[8]; Picloram 24 g ae/ha alone", "value": 82, "unit": "%"}, {"measurement": "Visual Growth reduction (%) 14 Days After Application VIOTR obs", "setting": "[9]; Picloram 12 g ae/ha alone", "value": 0, "unit": "%"}, {"measurement": "Visual Growth reduction (%) 14 Days After Application VIOTR obs", "setting": "[9]; Picloram 24 g ae/ha alone", "value": 3, "unit": "%"}, {"measurement": "Visual Growth reduction (%) 14 Days After Application BRSNW obs", "setting": "[10]; Picloram 12 g ae/ha alone", "value": 13, "unit": "%"}, {"measurement": "Visual Growth reduction (%) 14 Days After Application BRSNW obs", "setting": "[10]; Picloram 24 g ae/ha alone", "value": 20, "unit": "%"}]}]}
